Columns and labels:
[1] = molecular target: T1, A1 (Homo sapiens, UniProt Q16548); conditions: cited from earlier work
T1 sequence (Q16548 1-175): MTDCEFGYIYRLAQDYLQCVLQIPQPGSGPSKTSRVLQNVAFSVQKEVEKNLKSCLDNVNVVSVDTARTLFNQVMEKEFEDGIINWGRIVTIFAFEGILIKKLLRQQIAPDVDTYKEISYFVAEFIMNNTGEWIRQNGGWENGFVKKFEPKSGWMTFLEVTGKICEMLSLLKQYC

[2] = molecular target: Mcl-1 (Homo sapiens, UniProt Q07820); conditions: cited from earlier work
[3] = tested on: HeLa cells; assay: Flow cytometry, subG1-phase cells (apoptosis); type: cell-based, human; conditions: ABT-737 (3 μM) in Luc siRNA-treated HeLa cells
Procedure: FIG. 13: Flow cytometry of HeLa cancer cell transfected with luc, mcl-1, USP46v1, USP46v4 or USP46 pool siRNA. Cell cycle was determined 72 h after siRNA transfection and 18 h after ABT-737 treatment (3 μM).
FIG. 14: ABT-737-induced subG1 transition in HeLa cells determined 72 h after siRNA transfection and 24 h after ABT-737 treatment. The percentage of cells in the subG1 (<2N) are means+/−SD of duplicate values (A). Mcl-1 endogenous level was also determined in the presence of siRNA targeting either luciferase, Mcl-1 or USP46. Anti-Stat3 antibody was used as loading control (B).
All cell lines used were maintained in their respective medium. All culture media were supplemented with 100 units/ml penicillin and 0.1 mg/ml streptomycin, and cell lines were incubated at 37° C. in a humidified atmosphere containing 5% CO2. For siRNA transfection, siRNA (40 pmol, 72 nM final) were complexed with 2 μl of Oligofectamine (Invitrogen) in Opti-MEM (Invitrogen) and added to 24-well plates prior to cell seeding. In all conditions, Opti-MEM was replaced with appropriate medium 5 hours after transfection. […]
To confirm the effect of USP46 siRNA on the sensitization of cells to ABT-737-induced apoptosis in HeLa cells, the number of subG1-phase cells is quantified which reflect mainly apoptosis. […]

[4] = tested on: Mcl-1 in HCT116 cells; assay: USP siRNA screening on Mcl-1 half-life with cycloheximide, Western blot; type: cell-based, human; conditions: confirmation experiment
Procedure: FIG. 1 (FIGS. 1.1, 1.2, 1.3): Schematic representation of Mcl-1 modulation following USP silencing at t=0, 30 min or 1 h of cycloheximide treatment in HCT116 cells. Mcl-1 increase and decrease are respectively presented in blue and green and siRNA toxicity is presented in grey. Absence of color corresponds to absence of any effect. Selected USP for confirmation experiments are highlighted in green (USP5, USP13, USP19, USP21, USP22, USP26, USP28, USP38, USP42 and USP46). SiRNA designed to target pairs of USP are indicated on the right of the table.
For the screening, the indicated amounts of siRNA (40 pmol, 72 nM final) were complexed with 2 μl of Oligofectamine (Invitrogen) in Opti-MEM (Invitrogen) and added to 24-well plates prior to cell seeding. 150 000 HCT116 cells were next plated. Opti-MEM was replaced with appropriate medium 5 hours after transfection. After 72 h of transfection and before harvesting, cells were treated or not with cycloheximide (30 μg/ml) for 30 min or 1 hour or treated with MG132 (30 μM) for 90 min.
Cells were washed once in chilled PBS and harvested by trypsination. Floating and trypsinized cells were pooled and collected by centrifugation. […] Proteins were quantitated using bicinchoninic acid (Sigma-Aldrich) according to manufacturer's instructions. […] Signal was detected using ECL reagent (Amersham) following manufacturer's instructions. […]

Sequence of Mcl-1 (Q07820 whole entry, species assumed): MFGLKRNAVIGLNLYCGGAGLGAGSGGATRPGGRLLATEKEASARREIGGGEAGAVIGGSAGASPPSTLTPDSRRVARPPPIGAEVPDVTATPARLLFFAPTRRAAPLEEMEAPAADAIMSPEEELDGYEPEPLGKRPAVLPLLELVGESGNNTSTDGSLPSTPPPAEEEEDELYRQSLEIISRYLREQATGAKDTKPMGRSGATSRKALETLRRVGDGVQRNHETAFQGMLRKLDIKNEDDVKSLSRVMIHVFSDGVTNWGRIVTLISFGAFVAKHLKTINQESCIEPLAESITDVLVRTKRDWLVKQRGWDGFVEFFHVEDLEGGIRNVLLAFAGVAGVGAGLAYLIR

Structure (SMILES)	affinity for A1 [1]	affinity for Mcl-1 [2]	subG1 cells [3]	endogenous Mcl-1 level [4]
CN(C)CC[C@H](CSc1ccccc1)Nc1ccc(S(=O)(=O)NC(=O)c2ccc(N3CCN(Cc4ccccc4-c4ccc(Cl)cc4)CC3)cc2)cc1[N+](=O)[O-] [ABT-737]	low affinity	low affinity	35%±6.6%	
C[C@@H]1C[C@@H]([C@H](O)CC2CC(=O)NC(=O)C2)C(=O)[C@@H](C)C1 [cycloheximide]				significant decrease

Reference: patent US20110237644A1, “UBIQUITIN SPECIFIC PROTEASES RESPONSIBLE FOR MCL-1 STABILITY AND USES THEREOF” (Les Laboratoires Servier, priority 2008, published 2011)
